Experiments:
[1] = in vitro; settings: African green monkey
[2] = test system: DENV-2 16681 strain labeled with eGFP; experiment: DENV-2 antiviral assay (eGFP fluorescence read-out in Vero cells); format: cell-based, Dengue virus; settings: Dengue virus, DENV2, Vero, 72 h, DENV-2 16681 eGFP, MOI 0.5, 3 days
Experimental: The antiviral activity of all the compounds of the invention was tested against the DENV-2 16681 strain which was labeled with enhanced green fluorescent protein (eGPF). The culture medium consists of minimal essential medium supplemented with 2% of heat-inactivated fetal calf serum, 0.04% gentamycin (50 mg/mL) and 2 mM of L-glutamine. Vero cells, obtained from ECACC, were suspended in culture medium and 25 μL was added to 384-well plates (2500 cells/well), which already contain the antiviral compounds. Typically, these plates contain a 5-fold serial dilution of 9 dilution steps of the test compound at 200 times the final concentration in 100% DMSO (200 nL). […] Finally, each plate contains wells which are assigned as virus controls (containing cells and virus in the absence of compound), cell controls (containing cells in the absence of virus and compound) and medium controls (containing medium in the absence of cells, virus and compounds). To the wells assigned as medium control, 25 μL of culture medium was added instead of Vero cells. Once the cells were added to the plates, the plates were incubated for 30 minutes at room temperature to allow the cells to distribute evenly within the wells. Next, the plates were incubated in a fully humidified incubator (37° C., 5% CO2) until the next day. Then, DENV-2 strain 16681, labeled with eGFP, was added at a multiplicity of infection (MOI) of 0.5. Therefore, 15 μL of virus suspension was added to all the wells containing test compound and to the wells assigned as virus control. In parallel, 15 μL of culture medium was added to the medium and cell controls. Next, the plates were incubated for 3 days in a fully humidified incubator (37° C., 5% CO2). At the day of the read out, the eGFP fluorescence was measured using an automated fluorescence microscope at 488 nm (blue laser). Using an in-house LIMS system, inhibition dose response curves for each compound were calculated and the half maximal effective concentration (EC50) was determined. Therefore, the percent inhibition (I) for every test concentration is calculated using the following formula: I=100*([…])/(SVC−SCC); ST, SCC and SVC are the amount of eGFP signal in the test compound, cell control and virus control wells, respectively. The EC50 represents the concentration of a compound at which the virus replication is inhibited with 50%, as measured by a 50% reduction of the eGFP fluorescent intensity compared to the virus control. The EC50 is calculated using linear interpolation (Table 1).

| Structure (SMILES) | CC50 [1] [µM] | EC50 [2] [µM] |
| --- | --- | --- |
| COc1cc(NC(C(=O)c2c[nH]c3cc(F)ccc23)c2ccc(F)cc2OCCO)cc(S(C)(=O)=O)c1 (racemic) [Compound 1, 1-(6-fluoro-1H-indol-3-yl)-2-(4-fluoro-2-(2-hydroxyethoxy)phenyl)-2-((3-methoxy-5-(methylsulfonyl)phenyl)amino)ethanone] | 7.6 | 0.0018 |
| COc1cc(NC(C(=O)c2c[nH]c3cc(Cl)ccc23)c2ccc(F)cc2OCCO)cc(S(C)(=O)=O)c1 (racemic) [Compound 2, 1-(6-chloro-1H-indol-3-yl)-2-(4-fluoro-2-(2-hydroxyethoxy)phenyl)-2-((3-methoxy-5-(methylsulfonyl)phenyl)amino)-ethanone] | 6.2 | 0.00081 |
| COc1cc(NC(C(=O)c2c[nH]c3c(C)c(F)ccc23)c2ccc(F)cc2OCCO)cc(S(C)(=O)=O)c1 (racemic) [Compound 3, 2-(4-fluoro-2-(2-hydroxyethoxy)phenyl)-1-(6-fluoro-7-methyl-1H-indol-3-yl)-2-((3-methoxy-5-(methylsulfonyl)phenyl)amino)ethanone] | 5.1 | 0.0012 |
| COc1cc(NC(C(=O)c2c[nH]c3c(C)c(Cl)ccc23)c2ccc(F)cc2OCCO)cc(S(C)(=O)=O)c1 (racemic) [Compound 4, 1-(6-chloro-7-methyl-1H-indol-3-yl)-2-(4-fluoro-2-(2-hydroxyethoxy)phenyl)-2-((3-methoxy-5-(methylsulfonyl)phenyl)amino)ethanone] | 3.5 | 0.00037 |
| COc1cc(NC(C(=O)c2c[nH]c3cc(F)c(F)cc23)c2ccc(F)cc2OCCO)cc(S(C)(=O)=O)c1 (racemic) [Compound 5, 1-(5,6-difluoro-1H-indol-3-yl)-2-(4-fluoro-2-(2-hydroxyethoxy)phenyl)-2-((3-methoxy-5-(methylsulfonyl)phenyl)-amino)ethanone] | 6.9 | 0.001 |
| COc1cc(NC(C(=O)c2c[nH]c3cc(OC)c(C)cc23)c2ccc(F)cc2OCCO)cc(S(C)(=O)=O)c1 (racemic) [Compound 6, 2-(4-fluoro-2-(2-hydroxyethoxy)phenyl)-2-((3-methoxy-5-(methylsulfonyl)phenyl)amino)-1-(6-methoxy-5-methyl-1H-indol-3-yl)ethanone] | 5.8 | 0.0014 |
| COc1cc(NC(C(=O)c2c[nH]c3c(F)cc(C)cc23)c2ccc(F)cc2OCCO)cc(S(C)(=O)=O)c1 (racemic) [Compound 8, 2-(4-fluoro-2-(2-hydroxyethoxy)phenyl)-1-(7-fluoro-5-methyl-1H-indol-3-yl)-2-((3-methoxy-5-(methylsulfonyl)phenyl)amino)ethanone] | 6.9 | 0.0023 |
| COc1cc(NC(C(=O)c2c[nH]c3cc(OC)c(OC(F)(F)F)cc23)c2ccc(F)cc2OCCO)cc(S(C)(=O)=O)c1 (racemic) [Compound 11, 2-(4-fluoro-2-(2-hydroxyethoxy)phenyl)-2-((3-methoxy-5-(methyl-sulfonyl)phenyl)amino)-1-(6-methoxy-5-(trifluoromethoxy)-1H-indol-3-yl)ethanone] | 9 | 0.00048 |
| COc1cc(NC(C(=O)c2c[nH]c3c(C)cc(OC(F)(F)F)cc23)c2ccc(F)cc2OCCO)cc(S(C)(=O)=O)c1 (racemic) [Compound 12, 2-(4-fluoro-2-(2-hydroxyethoxy)phenyl)-2-((3-methoxy-5-(methylsulfonyl)phenyl)amino)-1-(7-methyl-5-(trifluoromethoxy)-1H-indol-3-yl)ethanone] | 3.7 | 0.00022 |

From US10786484B2, “Mono- or di-substituted indole derivatives as dengue viral replication inhibitors” (Janssen Pharmaceuticals, Inc., priority 2015, dated 2020)
